According to US11529323B2 (priority 2017, dated 2022):

What was measured:
luteinizing hormone = assay: Serum luteinizing hormone radioimmunoassay, Study 1; format: in vivo, mouse; settings: Study 1, Day 18; C-26 tumor bearing mice; GTx-024 15 mg/kg
Protocol: FIG. 9A is a bar graph showing serum luteinizing hormone levels measured on Day 18. FIG. 9B is a graph showing per animal food consumption measured every two days. FIG. 9C is a plot showing spleen weights normalized to tumor mass-corrected terminal body weight. […], versus tumor-bearing vehicle-treated controls, Dunnett's multiple comparison test.
Luteinizing hormone (LH) was measured in serum by a two-site sandwich radioimmunoassay performed by the Ligand Assay and Analysis Core at the Center for Research in Reproduction, University of Virginia School of Medicine (Charlottesville, Va.). Serum was isolated by centrifugation (2000×g, 15 minutes) from whole blood samples collected from mice immediately post-mortem, and then stored at −80° C. until shipment on dry ice.

serum cytokines = assay: Serum cytokine panel, multiplex analysis, Study 2, tumor-free mice; format: in vivo, mouse; settings: GTx-024 15 mg/kg p.o. qd, Day 17 sacrifice, mean ± SD
Protocol: (§1) This confirmatory study was performed exactly as Study 1 with expanded animal numbers. Tumor-free control groups were maintained at 6 animals each, whereas 10 animals were included in each of the tumor-bearing groups. […] Grip strength was measured on study days 0 (baseline) and 16. Due to rapid model progression, this study was terminated after only 12 days of treatment.
(§2) Serum cytokine panel analyses were performed by a commercial vendor (Eve Technologies, Calgary, Canada) as previously described. Serum interleukin-6 (IL-6) was measured using a commercial ELISA kit (R&D Systems, Minneapolis, Minn., USA) according to the manufacturer's instructions.

[1] = Sborov et al. 2017; cited from earlier work
[2] = oral gavage every other day; cited from earlier work
phospho-STAT3 (pSTAT3) = assay: Phospho-STAT3/STAT3 ELISA in C-26 tumors, Study 2; format: in vivo, mouse; settings: AR-42 10 mg/kg
Source text: (§3) FIG. 4A is a table showing multiplex analysis of diverse serum cytokines in terminal samples from Study 2. Presented cytokines are limited to those showing significant differences from tumor-bearing vehicle-treated controls. G-CSF: granulocyte colony-stimulating factor, GM-CSF: granulocyte macrophage colony-stimulating factor, IL-6: interleukin-6, IL-17: interleukin-17, IP-10: interferon gamma-induced protein 10, KC: chemokine (C-X-C motif) ligand 1, LIF: leukemia inhibitory factor, M-CSF: macrophage colony-stimulating factor. FIG. 4B is a bar graph showin ELISA analysis of serum IL-6 levels in terminal samples from Study 2. ND, not detected. FIG. 4C is a plot showing individual animal serum IL-6 values as determined in A plotted against tumor-corrected terminal bodyweights from Study 2 (Pearson's Correlation). […] FIG. 4E is a plot showing spleen weights normalized to tumor-corrected terminal body weights of mice from Study 2. FIG. 4F is a bar graph showing ELISA analysis of STAT3 within C-26 tumors from Study 2. […]
Phospho-STAT3/STAT3 Analysis: Expression of phospho-STAT3 and total STAT3 in C-26 tumor tissues was measured using commercial sandwich ELISA kits according to the manufacturer's instructions (PathScan® Phospho-Stat3, #7300, and Total Stat3, #7305, Cell Signaling Technology, Danvers, Mass.).

IL-6 = assay: Serum IL-6 ELISA, Study 2; format: in vivo, mouse; settings: Study 2 terminal serum; AR-42 10 mg/kg
Source text: as §3, §2

[3] = test system: C-26 colon adenocarcinoma cachexia model; assay: Combined androgen and AR-42 study (Study 3), C-26 model; format: in vivo, mouse
Protocol: (§4) These studies were performed as previously described (Tseng Y C, et al. J Natl Cancer Inst. 2015 107(12):djv274) with modifications. Tumors were established in the right flank by subcutaneous injection of C-26 cells (0.5×10^6 cells in 0.1 mL). […] TFM-4AS-1 (a potent experimental SARM), dihydrotestosterone (DHT) and vehicles were administered by subcutaneous injection.
Six days after cell injection, animals with palpable tumors were treated once daily for 13 days with vehicles for AR-42 and TFM-4AS-1/DHT (n=9), AR-42 (10 mg/kg; TFM-4AS-1/DHT vehicle; n=10), TFM-4AS-1 (10 mg/kg; AR-42 vehicle; n=9), DHT (3 mg/kg; AR-42 vehicle; n=10), the combination of AR-42 and TFM-4AS-1 (10 mg/kg each; n=9), or the combination of AR-42 (10 mg/kg) and DHT (3 mg/kg)(n=10). Grip strength was measured and tissues collected as in the previous studies.
(§5) Forelimb grip strength was measured using Bio-GS3 Grip Strength Test Meter (Forceleader DBA Bioseb, Pinellas Park, Fla.). Each mouse was held by the base of its tail and lowered over the apparatus until its forepaws grasped the metal pull bar. The mouse was then gently pulled horizontally in a straight line away from the grip strength meter until the mouse released the bar. The force applied to the bar at the moment of release was recorded as the peak force. Five measurements were taken from each mouse, the average of which was designated as the mouse's grip strength.

[4] = test system: C-26 colon adenocarcinoma cachexia model; assay: Confirmatory AR-42/GTx-024 combination study (Study 2), C-26 model; format: in vivo, mouse
Protocol: as §4, §1, §5

## C[C@](O)(COc1ccc(C#N)cc1)C(=O)Nc1ccc(C#N)c(C(F)(F)F)c1 [GTx-024, (2S)-3-(4-cyanophenoxy)-N-(4-cyano-3-(trifluoromethyl)phenyl)-2-hydroxy-2-methylpropanamide]
Luteinizing hormone
  serum luteinizing hormone: suppression of serum luteinizing hormone
Serum cytokines
  Eotaxin, serum: 669.53 ± 100.70 pg/mL
  G-CSF, serum: 338.39 ± 71.70 pg/mL
  GM-CSF, serum: 13.27 ± 4.62 pg/mL
  IFNg, serum: 5.93 ± 2.14 pg/mL
  IL12 (p40), serum: 22.48 ± 13.42 pg/mL
  IL-1a, serum: 60.41 ± 56.12 pg/mL
  IL-1b, serum: 14.65 ± 5.66 pg/mL
  IL-2, serum: 15.43 ± 6.56 pg/mL
  IL-3, serum: 1.10 ± 0.63 pg/mL
  IL-4, serum: 0.48 ± 0.37 pg/mL
  IL-5, serum: 5.71 ± 3.26 pg/mL
  IL-6, serum: 2.45 ± 1.31 pg/mL
  IL-7, serum: 11.51 ± 11.06 pg/mL
  IL-9, serum: 8.02 ± 6.78 pg/mL
  IL-10, serum: 2.38 ± 1.13 pg/mL
  IL-12 (p70), serum: 10.83 ± 6.12 pg/mL
  IL-13, serum: 29.87 ± 12.81 pg/mL
  IL-15, serum: 131.33 ± 70.97 pg/mL
  IL-17, serum: 5.01 ± 1.18 pg/mL
  IP-10, serum: 145.68 ± 48.83 pg/mL
  KC, serum: 90.02 ± 17.69 pg/mL
  LIF, serum: 2.50 ± 2.34 pg/mL
  LIX, serum: 1316.67 ± 1662.66 pg/mL
  M-CSF, serum: 27.23 ± 10.09 pg/mL
  MCP-1, serum: 54.54 ± 7.47 pg/mL
  MIG, serum: 89.29 ± 41.83 pg/mL
  MIP-1a, serum: 75.46 ± 29.41 pg/mL
  MIP-1b, serum: 87.69 ± 10.61 pg/mL
  MIP-2, serum: 136.75 ± 47.91 pg/mL
  RANTES, serum: 20.84 ± 10.38 pg/mL
  TNFa, serum: 12.15 ± 4.24 pg/mL
  VEGF, serum: 0.87 ± 0.32 pg/mL

## CC(C)[C@H](C(=O)Nc1ccc(C(=O)NO)cc1)c1ccccc1 [AR-42, (S)—N-hydroxy-4-(3-methyl-2-phenylbutanamido)benzamide]
[1]
  well tolerated plasma exposure in humans: 8.5 µM·h
[2]
  maximally tolerated dose in mice: 50 mg/kg
phospho-STAT3 (pSTAT3)
  pSTAT3 signaling within the C-26 tumors: did not significantly suppress pSTAT3 signaling within the C-26 tumors
IL-6
  circulating IL-6 levels (ELISA): did not affect circulating IL-6 levels
[3]; Study 3, Day 17, of baseline, C-26 tumor-bearing, AR-42 10 mg/kg oral, TFM-4AS-1 10 mg/kg s.c., DHT 3 mg/kg s.c.
  terminal body weight: 93.5±4.8
[3]; Study 3, monotherapy (TFM-4AS-1 10 mg/kg; AR-42 10 mg/kg)
  effect on mass of gastrocnemius or quadriceps: did not significantly impact skeletal muscle masses
[4]; Study 1 and 2, C-26 tumor-bearing, normalized to tumor-corrected terminal body weight
  spleen mass: either unchanged or slightly increased
[4]; Study 2, day 16, C-26 tumor-bearing
  forelimb grip strength: improved grip strength over vehicle-treated tumor-bearing controls
[4]; Study 2, AR-42 10 mg/kg
  adipose or heart mass: had no impact on adipose or heart mass
[4]; Study 2, C-26 tumor-bearing, versus vehicle-treated tumor-bearing controls
  effect on gastrocnemius and quadriceps mass: significantly spared gastrocnemius and quadriceps mass
